The text below walks through data of patent US9670210B2, “Cyclopropylamines as LSD1 inhibitors” (Incyte Corporation, priority 2014, dated 2017).

A value given as a limit tells only on which side of the number the result lay.

The target of this assay is LSD-1 enzyme (Homo sapiens (Human), UniProt O60341).

Experimental: LSD1 Histone Demethylase Biochemical Assay
LANCE LSD1/KDM1A demethylase assay-10 μL of 1 nM LSD-1 enzyme (ENZO BML-SE544-0050) in the assay buffer (50 mM Tris, pH 7.5, 0.01% Tween-20, 25 mM NaCl, 5 mM DTT) were preincubated for 1 hour at 25° C. with 0.8 μL compound/DMSO dotted in black 384 well polystyrene plates. […] After stopping the reactions plates were incubated for 30 minutes and read on a PHERAstar FS plate reader (BMG Labtech).

By IC50 is commonly meant the concentration needed to halve the response being measured. Low values mean greater potency, high ones weaker potency. `CNC(=O)c1ccc(OCC2(CN[C@@H]3C[C@H]3c3ccccc3)CCN(CC3(C(=O)O)CC3)CC2)cn1` [Example 90, 1-{[4-[({6-[(methylamino)carbonyl]pyridin-3-yl}oxy)methyl]-4-({[(1R,2S)-2-phenylcyclopropyl]amino}methyl)piperidin-1-yl]methyl}cyclopropanecarboxylic acid] yielded an IC50 of under 0.1 µM.

The molecule `Cn1cnc(C(=O)N2CCC(C)(CN[C@@H]3C[C@H]3c3ccccc3)CC2)c1` [Example 47, (1R,2S)—N-({4-methyl-1-[(1-methyl-1H-imidazol-4-yl)carbonyl]piperidin-4-yl}methyl)-2-phenylcyclopropanamine] yielded a half-inhibitory concentration (IC50) of under 0.1 µM. The result for `O=C(O)C1(CN2CCC(CN[C@@H]3C[C@H]3c3ccccc3)(COC3CCCCC3)CC2)CCC1` [Example 95, 1-{[4-[(cyclohexyloxy)methyl]-4-({[(1R,2S)-2-phenylcyclopropyl]amino}methyl)piperidin-1-yl]methyl}cyclobutanecarboxylic acid] reads under 0.1 µM.

`N#CCc1ccc(CC2(CN[C@@H]3C[C@H]3c3ccccc3)CCN(CC3(C(=O)O)CCC3)CC2)cc1` [Example 54, 1-{[4-[4-(cyanomethyl)benzyl]-4-({[(1R,2S)-2-phenylcyclopropyl]amino}methyl)piperidin-1-yl]methyl}cyclobutanecarboxylic acid] displayed an IC50 of under 0.1 µM. `COCC1(CN[C@@H]2C[C@H]2c2ccccc2)CCN(C(=O)c2cnn(C)c2)CC1` [Example 105, (1R,2S)—N-({4-(methoxymethyl)-1-[(1-methyl-1H-pyrazol-4-yl)carbonyl]piperidin-4-yl}methyl)-2-phenylcyclopropanamine] had a half-inhibitory concentration (IC50) of under 0.1 µM. The result for `O=C(O)C1(CN2CCC(CN[C@@H]3C[C@H]3c3ccccc3)(COC3CCCCC3)CC2)CC1` [Example 94, 1-{[4-[(cyclohexyloxy)methyl]-4-({[(1R,2S)-2-phenylcyclopropyl]amino}methyl)piperidin-1-yl]methyl}cyclopropanecarboxylic acid] reads under 0.1 µM; that for `CCOCC1(CN[C@@H]2C[C@H]2c2ccccc2)CCN(CC2(C(=O)O)CC2)CC1` [Example 70, 1-{[4-(ethoxymethyl)-4-({[(1R,2S)-2-phenylcyclopropyl]amino}methyl)piperidin-1-yl]methyl}cyclopropanecarboxylic acid], under 0.1 µM; that for `COCCn1cc(C(=O)N2CCC(CN[C@@H]3C[C@H]3c3ccccc3)(COC)CC2)cn1` [Example 104, (1R,2S)—N-{[1-{[1-(2-methoxyethyl)-1H-pyrazol-4-yl]carbonyl}-4-(methoxymethyl)piperidin-4-yl]methyl}-2-phenylcyclopropanamine], under 0.1 µM.

`N#Cc1ccc(OCC2(CN[C@@H]3C[C@H]3c3ccccc3)CCN(CC3(C(=O)O)CC3)CC2)c(F)c1` [Example 82, 1-{[4-[(4-cyano-2-fluorophenoxy)methyl]-4-({[(1R,2S)-2-phenylcyclopropyl]amino}methyl)piperidin-1-yl]methyl}cyclopropanecarboxylic acid] had an IC50 of under 0.1 µM. The result for `N#Cc1ccc(CC2(CN[C@@H]3C[C@H]3c3ccccc3)CCN(CC3(C(=O)O)CC3)CC2)c(F)c1` [Example 74, 1-{[4-(4-cyano-2-fluorobenzyl)-4-({[(1R,2S)-2-phenylcyclopropyl]amino}methyl)piperidin-1-yl]methyl}cyclopropanecarboxylic acid] reads under 0.1 µM; that for `CC1(CN[C@@H]2C[C@H]2c2ccccc2)CCN(C(=O)c2cnc(N)nc2)CC1` [Example 48, 5-{[4-methyl-4-({[(1R,2S)-2-phenylcyclopropyl]amino}methyl)piperidin-1-yl]carbonyl}pyrimidin-2-amine], under 0.1 µM; that for `N#Cc1ccc(C(=O)N2CC(CN[C@@H]3C[C@H]3c3ccccc3)C2)cc1` (relative stereo) [Example 25, 4-[(3-{[(trans-2-Phenylcyclopropyl)amino]methyl}azetidin-1-yl)carbonyl]benzonitrile], under 0.1 µM. Regarding `COc1ccc(CC2(CN[C@@H]3C[C@H]3c3ccccc3)CCN(CC3(C(=O)O)CC3)CC2)cc1` [Example 98, 1-{[4-(4-methoxybenzyl)-4-({[(1R,2S)-2-phenylcyclopropyl]amino}methyl)piperidin-1-yl]methyl}cyclopropanecarboxylic acid], the half-maximal inhibitory concentration (IC50) is under 0.1 µM.

In the case of `CC1(CN[C@@H]2C[C@H]2c2ccccc2)CCN(C(=O)c2c[nH]nc2N)CC1` [Example 50, 4-{[4-methyl-4-({[(1R,2S)-2-phenylcyclopropyl]amino}methyl)piperidin-1-yl]carbonyl}-1H-pyrazol-3-amine], the IC50 was under 0.1 µM. Molecule `O=S(=O)(c1ccc(OC(F)(F)F)cc1)N1CC(CN[C@@H]2C[C@H]2c2ccccc2)C1` (relative stereo) [Example 30, Trans-2-phenyl-N-[(1-{[4-(trifluoromethoxy)phenyl]sulfonyl}azetidin-3-yl)methyl]cyclopropanamine] yielded an IC50 of under 0.1 µM. For the molecule `N#Cc1ccccc1OCC1(CN[C@@H]2C[C@H]2c2ccccc2)CCN(CC2(C(=O)O)CCC2)CC1` [Example 83, 1-{[4-[(2-cyanophenoxy)methyl]-4-({[(1R,2S)-2-phenylcyclopropyl]amino}methyl)piperidin-1-yl]methyl}cyclobutanecarboxylic acid], the 50% inhibitory concentration (IC50) was under 0.1 µM.

Consider `COCC1(CN[C@@H]2C[C@H]2c2ccccc2)CCN(C(=O)C2(C#N)CC2)CC1` [Example 102, 1-{[4-(methoxymethyl)-4-({[(1R,2S)-2-phenylcyclopropyl]amino}methyl)piperidin-1-yl]carbonyl}cyclopropanecarbonitrile], for which the IC50 was under 0.1 µM. The result for `N#CCc1ccc(CC2(CN[C@@H]3C[C@H]3c3ccccc3)CCN(CC3(C(=O)O)CC3)CC2)cc1` [Example 53, 1-{[4-[4-(cyanomethyl)benzyl]-4-({[(1R,2S)-2-phenylcyclopropyl]amino}methyl)piperidin-1-yl]methyl}cyclopropanecarboxylic acid] reads under 0.1 µM; that for `O=C(O)C1(CN2CCC(CN[C@@H]3C[C@H]3c3ccccc3)(COc3ncc(F)cn3)CC2)CC1` [Example 88, 1-{[4-{[(5-fluoropyrimidin-2-yl)oxy]methyl}-4-({[(1R,2S)-2-phenylcyclopropyl]amino}methyl)piperidin-1-yl]methyl}cyclopropanecarboxylic acid], under 0.1 µM; that for `COCC1(CN[C@@H]2C[C@H]2c2ccccc2)CCN(CC2(C(=O)O)CC2)CC1` [Example 35, 1-{[4-(methoxymethyl)-4-({[(1R,2S)-2-phenylcyclopropyl]amino}methyl)piperidin-1-yl]methyl}cyclopropanecarboxylic acid], under 0.1 µM.

Regarding `COCC1(CN[C@@H]2C[C@H]2c2ccccc2)CCN(CC2(C(=O)O)CCCC2)CC1` [Example 37, 1-{[4-(methoxymethyl)-4-({[(1R,2S)-2-phenylcyclopropyl]amino}methyl)piperidin-1-yl]methyl}cyclopentanecarboxylic acid], the concentration for half-maximal inhibition (IC50) is under 0.1 µM.

For the molecule `COCC1(CN[C@@H]2C[C@H]2c2ccc(F)cc2)CCN(CC2(C(=O)O)CCC2)CC1` [Example 63, 1-{[4-({[(1R,2S)-2-(4-fluorophenyl)cyclopropyl]amino}methyl)-4-(methoxymethyl)piperidin-1-yl]methyl}cyclobutanecarboxylic acid], the IC50 is under 0.1 µM. Regarding `COCC1(CN[C@@H]2C[C@H]2c2ccccc2)CCN(C(=O)N2CCC[C@@H](O)C2)CC1` [Example 109, (3R)-1-{[4-(methoxymethyl)-4-({[(1R,2S)-2-phenylcyclopropyl]amino}methyl)piperidin-1-yl]carbonyl}piperidin-3-ol], the IC50 was under 0.1 µM.

With `COCC1(CN[C@@H]2C[C@H]2c2ccccc2)CCN(C(=O)N2CC[C@@H](O)C2)CC1` [Example 60, (3R)-1-{[4-(methoxymethyl)-4-({[(1R,2S)-2-phenylcyclopropyl]amino}methyl)piperidin-1-yl]carbonyl}pyrrolidin-3-ol], the 50% inhibitory concentration (IC50) is under 0.1 µM. The result for `COc1ccc(CC2(CN[C@@H]3C[C@H]3c3ccccc3)CCN(CC3(C(=O)O)CC3)CC2)cn1` [Example 69, 1-{[4-[(6-methoxypyridin-3-yl)methyl]-4-({[(1R,2S)-2-phenylcyclopropyl]amino}methyl)piperidin-1-yl]methyl}cyclopropanecarboxylic acid] reads under 0.1 µM; that for `N#CCC1(CN[C@@H]2C[C@H]2c2ccccc2)CCN(Cc2cccc(F)c2)CC1` (relative stereo) [Example 9, (1-(3-Fluorobenzyl)-4-{[(trans-2-phenylcyclopropyl)amino]methyl}piperidin-4-yl)acetonitrile], under 0.1 µM. In turn, `O=C(N1CC(CNC2CC2c2ccccc2)C1)N1CCCC(Oc2ccccc2)C1` (stereo not drawn) [Example 14, N-({1-[(3-Phenoxypiperidin-1-yl)carbonyl]azetidin-3-yl}methyl)-trans-2-phenylcyclopropanamine] gave an IC50 of under 0.1 µM. The result for `Fc1ccc(CN2CC(CN[C@@H]3C[C@H]3c3ccccc3)C2)cc1` (relative stereo) [Example 2, N-{[1-(4-Fluorobenzyl)azetidin-3-yl]methyl}-trans-2-phenylcyclopropanamine] reads under 0.1 µM. The molecule `O=C(O)C1(CN2CCC(CN[C@@H]3C[C@H]3c3ccccc3)(COCc3ccccc3)CC2)CC1` [Example 72, 1-{[4-[(benzyloxy)methyl]-4-({[(1R,2S)-2-phenylcyclopropyl]amino}methyl)piperidin-1-yl]methyl}cyclopropanecarboxylic acid] had an IC50 of under 0.1 µM.

In turn, `O=C(O)C1(CN2CCC(CN[C@@H]3C[C@H]3c3ccccc3)(COc3ccccc3F)CC2)CC1` [Example 75, 1-{[4-[(2-fluorophenoxy)methyl]-4-({[(1R,2S)-2-phenylcyclopropyl]amino}methyl)piperidin-1-yl]methyl}cyclopropanecarboxylic acid] displayed an IC50 of under 0.1 µM.

Regarding `O=C(N1CC(CNC2CC2c2ccccc2)C1)N1CCC[C@@]2(CCN(C3CCC(O)CC3)C2=O)C1` (stereo in doubt) [Example 10, (5R)-2-(cis-4-Hydroxycyclohexyl)-7-[(3-{[(trans-2-phenylcyclopropyl)amino]methyl}azetidin-1-yl)carbonyl]-2,7-diazaspiro[4.5]decan-1-one], the concentration for half-maximal inhibition (IC50) was under 0.1 µM.
